Assay results taken from publication PMC7887271, “Fast acting allosteric phosphofructokinase inhibitors block trypanosome glycolysis and cure acute African trypanosomiasis in mice” (Nature Communications, 2021).

Experiments:
[1] = biological target: T1, CYP2C19 (Homo sapiens, UniProt P33261); assay: Inhibition of CYP2C19; assay type: in vitro ADME; conditions: CYP450 isoform inhibition kit (BD Biosciences), probe CEC
T1 construct: purchased BD Biosciences
Method: (§1) A HepG2 cytotoxicity assay was used to determine a cellular selectivity index. HepG2 cells were seeded into 96-well plates in EMEM medium. Compounds were assessed for their effect upon cellular viability (Supplementary Methods 5.1). Inhibition of CYP450 was determined using kits from BD Biosciences (Supplementary Methods 5.2). Metabolic stability was determined using mouse […] tested at a single concentration of 5 µM. Plasma protein binding was determined using mouse and human plasma at a single concentration of 10 µM (Supplementary Methods 5.4). All PK studies in mice were carried out by Pharmidex (Supplementary Methods 6.1).
(§2) The compounds were investigated for their inhibitory effect on cytochrome P450 (CYP450) activity using five CYP450 isoforms (with fluorescent substrates in brackets): 3A4 (two substrates, BFC and DBF), 2D6 (AMMC), 2C9 (MFC), 2C19 (CEC) and 1A2 (CEC). Kits from BD Biosciences were used along with the method described by the manufacturer. […] Fluorescence was measured using a SpectraMax M5 plate reader.

[2] = biological target: T2, hPFK-M (Homo sapiens, UniProt P08237); assay: ALDO/G3PDH/TIM linked enzyme assay, human PFK-M; assay type: biochemical; conditions: aldolase/TIM linked assay, 25 °C; highest concentration 100 µM
T2 construct: made in house; host or cells: PFK-deficient Saccharomyces cerevisiae
T2 sequence (P08237 1-780): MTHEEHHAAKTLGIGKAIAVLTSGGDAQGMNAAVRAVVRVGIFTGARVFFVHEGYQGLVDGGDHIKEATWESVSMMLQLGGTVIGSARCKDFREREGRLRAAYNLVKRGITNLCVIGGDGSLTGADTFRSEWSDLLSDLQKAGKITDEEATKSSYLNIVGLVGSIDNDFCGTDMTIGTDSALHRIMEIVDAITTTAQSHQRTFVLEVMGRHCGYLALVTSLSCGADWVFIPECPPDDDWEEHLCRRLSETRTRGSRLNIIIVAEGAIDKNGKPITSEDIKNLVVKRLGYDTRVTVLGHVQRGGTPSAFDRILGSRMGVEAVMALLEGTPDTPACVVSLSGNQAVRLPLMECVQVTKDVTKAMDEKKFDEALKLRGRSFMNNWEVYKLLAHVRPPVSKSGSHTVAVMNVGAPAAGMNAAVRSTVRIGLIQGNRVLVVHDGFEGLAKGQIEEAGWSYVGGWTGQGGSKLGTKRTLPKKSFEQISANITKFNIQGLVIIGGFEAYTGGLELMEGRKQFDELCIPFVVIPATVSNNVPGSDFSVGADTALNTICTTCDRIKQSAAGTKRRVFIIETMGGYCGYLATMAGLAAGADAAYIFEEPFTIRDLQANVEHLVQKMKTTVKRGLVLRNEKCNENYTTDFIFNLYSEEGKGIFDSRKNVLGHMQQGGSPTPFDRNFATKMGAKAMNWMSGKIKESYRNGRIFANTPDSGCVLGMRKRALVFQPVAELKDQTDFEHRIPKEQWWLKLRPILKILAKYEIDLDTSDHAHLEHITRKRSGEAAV
Method: Enzyme activity was measured using an aldolase/TIM linked assay at 25 °C. […] Experiments were carried out in duplicate. Data are presented as mean values ± standard deviation. […] Source data are provided as a Source Data File. b Kill time of CTCB-405 compared with existing HAT drugs in the clinic. […] Over 99% of trypanosomes were killed in under 30 min compared with much slower killing rates for the other drugs. The points on the graph for CTCB-405 were determined from two independent biological replicate experiments with each time point measured twice (using duplicate technical replicates). The ESD for each point on the graph is between 0.7 and 1.4%. For drugs in clinical use each point on the graph is the average of two technical replicates from one experiment (with a maximum difference of 7.8% for any of the points). Source data are provided as a Source Data File.
In the PFK/PYK/LDH assay, the linked PYK activity acts to convert the ADP produced by PFK back to ATP. As ATP is an inhibitor of human PFK (but not TbPFK) at concentrations higher than ~0.5 mM the regeneration of ATP is likely to affect the assay readout. […] TIM interconverts GA3P and DHAP, and DHAP is reduced to glycerol 3-phosphate by G3PD, alongside the oxidation of NADH to NAD^+, which was measured by observing the change in UV absorbance at 340 nm for 10 minutes at 25° C using a Spectramax© M5 Multimode plate reader. […]

[3] = biological target: T3, CYP2D6 (Homo sapiens, UniProt P10635); assay: Inhibition of CYP2D6; assay type: in vitro ADME; conditions: CYP450 isoform inhibition kit (BD Biosciences), probe AMMC
T3 construct: purchased BD Biosciences
T3 sequence (P10635 whole entry, canonical isoform): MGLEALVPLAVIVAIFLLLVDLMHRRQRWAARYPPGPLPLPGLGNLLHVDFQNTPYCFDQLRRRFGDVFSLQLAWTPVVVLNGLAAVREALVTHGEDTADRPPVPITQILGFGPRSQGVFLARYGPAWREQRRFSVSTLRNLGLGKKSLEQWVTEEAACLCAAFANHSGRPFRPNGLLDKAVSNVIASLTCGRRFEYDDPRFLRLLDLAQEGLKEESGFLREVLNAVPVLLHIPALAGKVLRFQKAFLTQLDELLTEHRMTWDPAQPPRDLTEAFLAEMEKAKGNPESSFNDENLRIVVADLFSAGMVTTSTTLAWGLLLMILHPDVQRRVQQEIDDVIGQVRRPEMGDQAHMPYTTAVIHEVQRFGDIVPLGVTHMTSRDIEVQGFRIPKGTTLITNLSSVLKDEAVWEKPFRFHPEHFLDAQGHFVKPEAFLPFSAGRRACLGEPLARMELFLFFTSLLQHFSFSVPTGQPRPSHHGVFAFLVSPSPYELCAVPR
Method: as §1, §2

T1 sequence (P33261 whole entry, canonical isoform): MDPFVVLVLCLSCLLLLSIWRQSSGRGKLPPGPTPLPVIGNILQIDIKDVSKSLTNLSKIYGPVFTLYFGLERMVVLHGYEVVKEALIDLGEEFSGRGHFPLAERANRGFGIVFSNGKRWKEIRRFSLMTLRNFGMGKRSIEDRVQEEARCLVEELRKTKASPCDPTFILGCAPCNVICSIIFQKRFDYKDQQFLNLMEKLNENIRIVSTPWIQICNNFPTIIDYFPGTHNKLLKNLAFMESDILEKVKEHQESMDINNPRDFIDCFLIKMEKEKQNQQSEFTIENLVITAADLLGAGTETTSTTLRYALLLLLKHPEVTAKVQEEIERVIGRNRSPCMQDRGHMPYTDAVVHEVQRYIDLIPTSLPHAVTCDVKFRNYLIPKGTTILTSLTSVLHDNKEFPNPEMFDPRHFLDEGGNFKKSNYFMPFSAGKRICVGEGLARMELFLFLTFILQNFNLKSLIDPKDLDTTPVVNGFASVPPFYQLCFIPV

| Compound | inhibition at 10 µM [1] [%] | inhibition of hPFK-M [2] | inhibition at 10 µM [3] [%] |
| --- | --- | --- | --- |
| CN(C)CCn1ccc2c(ccn2Cc2ccc(Cl)c(Cl)c2)c1=O [CTCB-405, 1-[(3,4-Dichlorophenyl)methyl]-5-[2-(dimethylamino)ethyl] pyrrolo[3,2-c]pyridin-4-one] | 64 | no significant inhibition | 60 |
| CN(C)CCn1ccc2c(ccn2Cc2ccc(Cl)c(Br)c2)c1=O [CTCB-470, 1-[(3-Bromo-4-chlorophenyl)methyl]-5-[2-(dimethylamino)ethyl] pyrrolo[3,2-c]pyridin-4-one] | 45 |  |  |
